Entries after “also recorded” stand apart in the source; their conditions may differ. Read-outs that look alike come from different tables or passages of the source.
How the values were obtained:
[1] = Clinical symptoms of rats in metabolic model; format: in vivo, rat; settings: SD rats, dose 0.05-0.5 mg/kg per Table 6
Experimental: (§1) Sprague-Dawley male rats (200 ± 20 g) were obtained from SPF (Beijing) Biotechnology Co., Ltd. (Beijing, China). The animals were housed under controlled environmental conditions: Temperature was maintained at 20–25 °C, humidity at 50 ± 10%, and a 12/12 h light/dark cycle was applied. They had ad libitum access to standard laboratory chow and filtered water. A two-week acclimatization period was provided before the experiments began. The 26 SC standards were prepared in normal saline at concentrations of 0.5 mg/mL, 0.1 mg/mL, and 0.05 mg/mL. Each rat was weighed before administration, and the injection dose was adjusted based on body weight. The dosing volume for each rat was maintained at approximately 200 µL.
(§2) 162 Sprague-Dawley (SD) rats were randomly divided into 27 groups, with six rats in each group. The control group received an injection of normal saline, while the remaining groups were injected with 26 different types of SCs. The dosage administered was determined based on pre-experimental results, specifically selecting the dose that produced the highest level of metabolites in the blood samples collected 1 h after tail vein injection at concentrations of 0.5 mg/kg, 0.1 mg/kg, and 0.05 mg/kg, as shown in Table 6. Subsequently, tail vein administration was conducted at the specified dosage. The orbital venous blood was taken from the outer canthus of the rat with capillaries at 15 min and 1 h. Feces were collected after the blood. The rats were then sacrificed, and their brains and livers were dissected. Samples were immediately frozen in liquid nitrogen and stored at −80 °C until analysis.

[2] = Human liver microsomal incubation (in vitro metabolic model); settings: for Conversion Rate: HLM, 37 °C 1 h, then UDPGA 30 min, peak area of parent in experimental group vs degradation control group; for most prevalent Phase II metabolic reaction / predominant Phase I metabolic reactions: human liver microsomal incubations
Experimental: Each of the 26 SCs was configured to 1 mg/mL with acetonitrile. The HLMs, NADPH regeneration solution A, regeneration solution B, and UDPGA solution were thawed at 4 °C. An icebox was prepared, and all additional steps were performed on ice. For this, 10 µL of NADPH regeneration solution A, 2 µL of regeneration solution B, 2 µL of SCs standard, and 10 µL of mixed human liver microsomes were added to 176 µL of 0.1 mol/L phosphate buffer. The mixture was mixed thoroughly and incubated at 37 °C for 1 h. Subsequently, 20 µL of UDPGA solution was added and mixed well, followed by an additional incubation for 30 min. The reaction was stopped by adding 200 µL of ice-cold acetonitrile. Additionally, the negative control group and the degradation control group were set up following the same procedure. […] The unadded components were supplemented with an equal amount of phosphate buffer. All samples were centrifuged at a high speed of 13,500 r for 10 min after reaction termination. The supernatant was collected and subsequently passed through a membrane filter (0.45 μm) prior to sampling.
The samples were separated and analyzed using a UHPLC-Q-Exactive Orbitrap MS system (Thermo Fisher Scientific, Waltham, MA, USA), which comprised a Thermo-Scientific™ Q-Exactive™(Thermo Fisher Scientific, Waltham, MA, USA) quadrupole electrostatic field orbitrap mass spectrometer coupled to a Vanquish ultrahigh-performance liquid chromatography (UHPLC) system (Thermo Fisher Scientific, Waltham, MA, USA) with a heated electrospray ionization HESI source in the positive ionization mode. The samples were separated on an ACQUITY UPLC BEH C18 Column (100 × 2.1 mm, 1.7 μm) with the column temperature maintained at 30 °C. The chromatographic separation was achieved using a gradient elution program with mobile phase A consisting of 0.1% formic acid in water and mobile phase B containing 0.1% formic acid in acetonitrile. The gradient profile was programmed as follows: Initial conditions were maintained at 5% B from 0 to 1 min, followed by a linear increase to 95% B from 1 to 11 min; the 95% B composition was held from 11 to 15.5 min, then decreased back to 5% B from 15.5 to 16 min, and finally maintained at 5% B from 16 to 18 min. The flow rate was set at 0.3 mL/min, and the injection volume was 10 μL for all analyses.
The following HESI source conditions were adopted: Acquisition mode was set to positive ion mode; the capillary temperature was maintained at 325 °C, the auxiliary gas heater temperature was set to 350 °C, and the spray voltage was applied at 3.7 kV. The mass spectrometry analysis was carried out in full-scan (FS) mode to trigger data-dependent acquisition in tandem mass spectrometry (FS-ddMS^2) mode. The FS data acquisition was performed using the following parameters: a resolution of 60,000, an automatic gain control (AGC) target of 1 × 10^6, a scan range of m/z 66.7–1000, and a maximum injection time (IT) of 250 ms. The ddMS^2 data acquisition was performed using the following parameters: a resolution of 30,000; an automatic gain control (AGC) target of 1 × 10^5; normalized collision energies (NCEs) of 20, 40, and 70 eV; and a maximum injection time (IT) of 50 ms.
Data acquisition was executed utilizing Xcalibur 4.3 software (Thermo Fisher Scientific, Waltham, MA, USA). The subsequent analysis of the acquired data was conducted using Thermo Fisher Scientific […] 3.2 software (Thermo Fisher Scientific, Waltham, MA, USA). The workflow’s nodes employed specific parameters: a mass tolerance of 5 ppm, a signal-to-noise threshold of 3, a minimum peak intensity of 1 × 10^5, a maximum peak width of 0.8 min, and a minimum of 3 scans per peak.

[3] = Metabolite identification, HLM incubation and rat model combined (UHPLC-Q-Exactive Orbitrap MS); parameters: species or system human; rat; settings: for metabolite that was a common outcome in both models: HLM incubation and rat model; for Characteristic Metabolite: characteristic / defining metabolites by the screening criteria; for Number of Metabolites / Number of Phase I Metabolites / Number of Phase II Metabolites: in vitro (HLM) and in vivo (rat) models together
Experimental: as §1, §2
(§3) For blood samples, 0.5 mL of each sample was mixed with 1.0 mL of acetonitrile. For brain samples, 0.2 g of tissue was combined with 0.5 mL of acetonitrile. For liver samples, 0.5 g of tissue was mixed with 0.5 mL of acetonitrile. For feces samples, 0.2 g of sample was combined with 1 mL of acetonitrile-water (3:1) for grinding and homogenization. Each mixture was sonicated for 40 min, allowed to precipitate at 4 °C for 30 min, and then centrifuged at 13,500 rpm for 10 min. The supernatant was filtered using a syringe filter (0.45 μm) for further testing.

[4] = Rat metabolic model, metabolite identification; format: in vivo
Experimental: as §1, §2, §3

[5] = pooled HLM and real urine samples; cited from earlier work
[6] = parameters: method as in PMID 32678962; settings: in vitro and in vivo systems; cited from earlier work
[7] = following human liver microsomal incubation

Row | SMILES | Animal manifestations after tail vein drug injection [1] | Conversion Rate [2] [%] | Phase II metabolites detected [2, 7] | metabolites detected [2, 7] | most prevalent Phase II metabolic reaction [2] | predominant Phase I metabolic reactions [2] | metabolite that was a common outcome in both models [3] | Characteristic Metabolite [3] | Number of Metabolites [3] | Number of Phase I Metabolites [3] | Number of Phase II Metabolites [3] | key Phase I metabolic reactions [4] | most significant Phase II metabolic processes [4] | Phase II metabolites identified ([4]; tail vein injection) | metabolic pathways associated ([4]; tail vein injection) | metabolites identified ([4]; tail vein injection) | further results
1 | CCOC(=O)C(NC(=O)c1nn(CCCCCF)c2ccccc12)C(C)C (stereo not shown) [5F-EMB-PINACA] | irritable, with unstable gait and tachypnea; also recorded: hematuria | 100.0 | one | eleven | glucuronidation | ester hydrolysis and hydroxylation | ester hydrolysis metabolite | ester hydrolysis, ester hydrolysis, hydroxylated, and oxidative defluorination metabolites; also recorded: Ester hydrolysis, oxidative defluorination, ester hydrolysis, and hydroxylated metabolites | 23 | 19 | 4 | oxidative defluorination and hydroxylation | sulfation and arginine binding reactions | 3 | eight | 13 | 
2 | COC(=O)C(NC(=O)c1cn(CCCCCF)c2ccccc12)C(C)(C)C (stereo not shown) [5F-MDMB-PICA] |  | 95.9 | two | fourteen | glucuronidation | ester hydrolysis and hydroxylation | oxidative defluorination metabolite | ester hydrolysis, de-N-alkylation, and oxidative defluorination metabolites; also recorded: Ester hydrolysis, de-N-alkyl side chain, and oxidative defluorination metabolite | 25 | 18 | 7 | oxidative defluorination and hydroxylation | sulfation and glycoside binding reactions | five | seven | twelve | Phase I metabolites detected [2, 7]: twelve; metabolic pathways involved [2, 7]: eight; Phase I metabolites identified ([4]; tail vein injection): seven; most abundant stage I metabolites [5]: ester hydrolysis metabolites
3 | CC(C)(NC(=O)c1cn(CCCCCF)c2ncccc12)c1ccccc1 [CUMYL-5F-P7ICA] |  |  |  |  |  |  |  |  |  |  |  |  |  |  |  |  | Phase II metabolites detected [6]: sulfated and glucuronidated; most common Phase I reactions [6]: oxidative defluorination, monohydroxylation, ketone formation, and carboxylation
4 | CC1(C)C(C(=O)c2cn(Cc3ccc(F)cc3)c3ccccc23)C1(C)C [FUB-144] | hematuria | 30.4 |  |  |  |  |  | Ketogenic and hydroxylated, hydroxylated, and dehydrogenated metabolites | 18 | 11 | 7 |  |  |  |  |  | 
5 | CCCCCn1cc(C(=O)c2ccc3ccccc3c2)cc1-c1ccccc1C [JWH-370] | syncope | 42.0 |  |  |  |  |  | Dihydrodiol, hydroxylated, and de-N-alkyl side chain metabolites | 14 | 9 | 5 |  |  |  |  |  | 
